Among the data in PubChem BioAssay (NCI) are TGI values, retold here.

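Growth conditions: 96-well plates. Treatment: test compound, 48 hours, 5 concentrations. Analysis: linear interpolation between bracketing concentrations; unreached endpoints set to highest concentration. TGI: total growth inhibition.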 Some results are limits rather than exact numbers.

What all share (assay): NCI-60 cell line screen, 48 h
For test [1], the system named is 786-0 renal.
For test [2], the system named is ACHN renal.
The test system of test [3] is DU-145 prostate.
In test [4] the test system is HCT-15 colon.
For test [5], the system named is HS 578T breast.
In test [6] the test system is PC-3 prostate.
For test [7], the system named is SF-539 CNS.
Test [8] concerns SK-MEL-2 melanoma.
Test [9] concerns SK-MEL-5 melanoma.
Test [10] relates to SK-OV-3 ovarian.
Test [11] concerns SNB-75 CNS.
Test [12] relates to SW-620 colon.
For test [13], the system named is CCRF-CEM leukemia.

Take `C/C(=N/NC(=S)Nc1cccc(C)c1)c1ccccn1`: the TGI in [1] was 4.26 µM; in [2], 6.83 µM; in test [3], 8.29 µM; in test [4] it was 2.24 µM; in test [5], 41.1 µM; in [6] it was 7.68 µM. The TGI in [7] was found to be 5.62 µM; in [8], 4.42 µM; in test [9], 1.6 µM; in test [10], 2.78 µM; in test [11], 5.08 µM; in [12] it was 5.45 µM.
`O=C(CCc1ccc(O)cc1)c1c(O)cc(O)cc1OC1OC(CO)C(O)C(O)C1O` (stereo not drawn): the TGI in test [1], in test [2], in test [3], in test [4], in [5] and in test [6] was above 100 µM in each case. Also, the TGI in test [7], in [8], in [9], in [10], in test [11] and in test [12] was above 100 µM each time.
Regarding `NCCCC(N)C(=O)O` (stereo not drawn), the TGI in [1], in [2], in test [13], in test [3], in [4] and in test [5] was above 100 µM throughout. For the same molecule, the TGI in [6], in test [8], in test [9], in test [10], in test [11] and in test [12] was above 100 µM in each case.
With `CSc1c(C(=O)Nc2ccc(C)cc2)c(N)[nH]c(=O)c1C#N`, the TGI in test [1], in [13], in test [3], in test [4], in test [5] and in test [6] was above 100 µM each time. For the same molecule, the TGI in [7], in test [8], in test [9], in [10], in [11] and in test [12] was above 100 µM each time.
Consider `CC(C)(CO)N1C(=O)c2ccccc2C1(O)c1ccc(Cl)cc1` (stereo not drawn), for which the TGI in [1], in test [2], in test [13], in test [3], in test [4] and in [5] was above 100 µM in each case. The TGI in test [6], in [8], in test [9], in [10], in test [11] and in [12] was above 100 µM throughout.
With `COc1ccc(NC2Oc3cc4c(cc3C(c3cc(OC)c(OC)c(OC)c3)C2C)OCO4)cc1` (stereo not drawn), the TGI in [1] was above 81.1 µM; in test [2], above 38.5 µM; in [13] it was above 100 µM; in test [3], above 91.4 µM; in test [5], above 100 µM; in test [6], above 100 µM. In addition, the TGI is 0.492 µM in [7]; above 100 µM in [8]; 4.09 µM in test [9]; above 100 µM in [10]; above 100 µM in test [11]; above 100 µM in test [12].
For `O=C(O)Cc1ccc2nc(COC(=O)c3ccccc3)sc2c1`, the TGI in test [1], in test [2], in [3], in test [4], in [5] and in [6] was above 100 µM each time. Also, the TGI in [8], in test [9], in test [10], in test [11] and in [12] was above 100 µM each time.
In the case of `CC(C)c1c(P(=O)(c2ccccc2)c2ccccc2)n(C)c2ccccc12`, the TGI in test [1], in test [2], in test [13], in [3], in test [4] and in test [5] was above 100 µM each time. For the same molecule, the TGI in test [6], in [7], in [8], in test [11] and in [12] was above 100 µM each time.
`COC(c1ccc(C(C)(C)C)cc1)(c1ccc(C(C)(C)C)cc1)c1cc(C(O)(c2cc(C(OC)(c3ccc(C(C)(C)C)cc3)c3ccc(C(C)(C)C)cc3)c(C)cc2C)c2cc(C(OC)(c3ccc(C(C)(C)C)cc3)c3ccc(C(C)(C)C)cc3)c(C)cc2C)c(C)cc1C`: the TGI in test [13], in test [3], in test [4], in test [5], in test [6] and in test [7] was above 100 µM in each case. Moreover, the TGI in test [8], in [9], in [10], in [11] and in test [12] was above 100 µM in each case.
On to `CC1=CC(=O)N(n2c(C)n[nH]c2=O)C1=O`, for which the TGI in test [1], in [2], in test [13], in test [3], in test [4] and in test [5] was above 100 µM each time. The TGI in test [6], in test [7], in [8], in test [9], in [10] and in test [12] was above 100 µM each time.
As for `COc1cccc(C2c3cc4c(cc3OC(N3CCCC3)C2C)OCO4)c1OC` (stereo not drawn), the TGI in [1] is 18.8 µM; in test [2] it was 16.8 µM; in test [13] it was 16.9 µM; in [3] it was 11.5 µM; in [4] it was 16.9 µM; in [5], 11.1 µM. Further, the TGI was found to be 27.3 µM in test [6]; 16.2 µM in test [7]; 17.1 µM in test [8]; 12.5 µM in test [9]; 18.8 µM in test [12].
As to `N#CC(C#N)=C1CCCS(=O)(=O)c2ccccc21`, the TGI in [1], in test [2], in [13], in [3], in [4] and in test [5] was above 100 µM each time. The TGI in test [6], in test [7], in [8], in test [10], in test [11] and in [12] was above 100 µM in each case.
In the case of `O=C1/C(=C/c2ccc(Br)s2)NC(=S)N1CN1CCOCC1`, the TGI in test [1], in test [2], in test [3], in test [4], in [5] and in [6] was above 100 µM throughout. Also, the TGI in test [8], in test [9], in [11] and in test [12] was above 100 µM in each case.
For `O=C(O)CNC(=O)c1ccc([As](=O)(O)O)cc1`, the TGI in [1], in test [2], in test [13], in test [3], in [4] and in test [5] was above 100 µM throughout. Besides, the TGI in test [6], in [8], in [9], in test [10], in test [11] and in [12] was above 100 µM throughout.
With `CO/N=C1/c2sccc2[C@H](NC(=O)CNC(=O)OC(C)(C)C)[C@@H]1O`, the TGI in test [13], in test [3], in test [4], in test [5], in test [6] and in [7] was above 100 µM throughout. Besides, the TGI in test [8], in [9], in test [10], in [11] and in [12] was above 100 µM each time.
`CCOc1ccc(N=C/C=C(\Cl)c2ccc3ccccc3c2)cc1`: the TGI in test [1] was 26.7 µM; in test [2], 32.7 µM; in test [3] it was 30.7 µM; in test [4] it was 30.2 µM; in test [5], 82.2 µM; in [6], 36 µM. Further, the TGI amounted to 39 µM in test [7]; 42.7 µM in [8]; 31 µM in test [9]; 38.4 µM in [10]; 33.4 µM in [11]; 36.5 µM in [12].
On to `CC1CC(C#N)=C2NCCCCN2C1=O` (stereo not drawn), for which the TGI in test [1], in [13], in [3], in test [4], in [5] and in test [6] was above 100 µM each time. The TGI in test [7], in [8], in test [9], in test [10], in test [11] and in test [12] was above 100 µM each time.
For the molecule `COC(=O)C1CC(C=[N+](C)C)=C(SC)N1` (stereo not drawn), the TGI in [1], in test [2], in test [3], in [4], in test [5] and in [6] was above 100 µM each time. The TGI in [8], in [9], in test [10], in test [11] and in test [12] was above 100 µM in each case.
